# Reference: the supplement of paper PMC10307832
# Legend:
# Test in all cases: relative viability (nuclei count vs DMSO), 5 days (fraction); higher = more cells survive
# [1] = compound: O=S(=O)(c1ccccc1)N(CC(F)(F)F)c1ccc(C(O)(C(F)(F)F)C(F)(F)F)cc1 + CC(=O)Nc1cccc(-n2c(=O)n(C3CC3)c(=O)c3c(Nc4ccc(I)cc4F)n(C)c(=O)c(C)c32)c1 [Trametinib] (partner 0.02 µM)
# In short: (§1)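 Values are medians from duplicate plates. Each reflects relative viability, defined as the nuclei count of treated wells over that of vehicle wells. Lung cancer cell lines in 1536-well plates were pin-tool dosed one day after seeding with one drug alone or with a fixed anchor-drug dose plus five library-drug doses (not always all listed) in √10 steps, then fixed, stained and imaged at 4× after 5 days.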
# [2] = compound: O=S(=O)(c1ccccc1)N(CC(F)(F)F)c1ccc(C(O)(C(F)(F)F)C(F)(F)F)cc1 + CS(=O)(=O)N1CCN(Cc2cc3nc(-c4cccc5[nH]ncc45)nc(N4CCOCC4)c3s2)CC1 [Pictilisib] (partner 1 µM)
# In short: as §1
# RO-3306 + Lapatinib = compound: C1=CC2=C(C=CC(=C2)C=C3C(=O)NC(=NCC4=CC=CS4)S3)N=C1 [RO-3306] + CS(=O)(=O)CCNCc1ccc(-c2ccc3ncnc(Nc4ccc(OCc5cccc(F)c5)c(Cl)c4)c3c2)o1 [Lapatinib] (partner 2 µM)
# In short: as §1
# RO-3306 + Phenformin = compound: C1=CC2=C(C=CC(=C2)C=C3C(=O)NC(=NCC4=CC=CS4)S3)N=C1 [RO-3306] + N=C(N)NC(=N)NCCc1ccccc1 [Phenformin] (partner 250 µM)
# In short: as §1
Cell Line,relative viability ([1]; first compound 0.8 µM),relative viability ([1]; first compound 2.53 µM),relative viability ([1]; first compound 8 µM),relative viability ([2]; first compound 0.8 µM),relative viability ([2]; first compound 2.53 µM),relative viability ([2]; first compound 8 µM),relative viability (RO-3306 + Lapatinib; first compound 0.01 µM),relative viability (RO-3306 + Lapatinib; first compound 0.03162 µM),relative viability (RO-3306 + Lapatinib; first compound 0.1 µM),relative viability (RO-3306 + Lapatinib; first compound 0.3162 µM),relative viability (RO-3306 + Lapatinib; first compound 1 µM),relative viability (RO-3306 + Phenformin; first compound 0.01 µM),relative viability (RO-3306 + Phenformin; first compound 0.1 µM),relative viability (RO-3306 + Phenformin; first compound 0.3162 µM),relative viability (RO-3306 + Phenformin; first compound 1 µM),relative viability (RO-3306 + Phenformin; first compound 0.03162 µM)
LK-2,0.69,0.548,0.704,0.628,0.752,0.493,0.931,0.705,0.886,0.88,0.985,0.445,0.312,0.499,0.344,–
LOU-NH91,0.919,0.844,0.914,0.539,0.564,0.515,0.692,0.739,0.811,0.771,0.677,0.808,0.681,0.649,0.694,0.709
LU99A,0.521,0.541,0.464,0.296,0.293,0.271,1.2,0.971,0.915,0.789,0.914,0.973,0.769,0.869,0.79,0.698
LXF-289,0.582,0.532,0.518,0.624,0.637,0.588,0.918,0.919,0.947,0.893,0.787,0.52,0.506,0.543,0.428,0.507
NCI-H23,0.392,0.379,0.343,0.641,0.521,0.538,1,1.02,1.05,1.12,0.748,0.734,0.737,0.745,0.668,0.762
NCI-H322M,0.497,0.506,0.557,0.551,0.529,0.541,0.576,0.595,0.575,0.586,0.561,0.768,0.724,0.777,0.791,0.661
NCI-H358,–,0.118,0.118,0.274,0.28,0.286,0.5,0.431,0.39,0.495,0.425,0.363,0.282,0.289,0.239,0.265
NCI-H460,0.198,0.109,0.147,0.436,0.333,0.362,1.64,–,0.958,1.18,1.25,0.635,0.496,0.555,0.544,0.365
NCI-H520,0.861,0.603,0.701,0.31,0.258,0.387,1.01,0.638,0.806,0.734,0.754,0.562,0.425,0.491,0.588,0.422
NCI-H596,0.746,0.794,0.724,0.353,0.342,0.335,0.892,0.83,1.08,1.07,1.17,0.77,0.799,0.758,0.966,0.63
